What was measured:
mice, rats = conditions: oral and i.p., 500 and 2500 mg/kg, 14 days
Experimental: Acute toxicity tests were performed on two animal species (mice, rats). More than 80 mice and 100 rats were used. The pharmaceutical was administered orally and intraperitoneally in doses of 500 and 2500 mg/kg (individual doses). The period of observation was 14 days.

Hexenalum-induced sleep = conditions: 10 to 30 mg/kg, 15 min before Hexenalum 80 mg/kg
Experimental: The effect of the drug on the length of Hexenalum-induced anesthesia was studied, i.e., the drug was administered in doses of 10 to 30 mg per kilogram of body weight, 15 minutes before the administration of the Hexenalum solution in a dose of 80 mg/kg.

[1] = test system: S. typhi TA 100, TA 102, and TA 97; assay: Mutagenicity, Ames' bacterial testing method; conditions: 0.01 and 2 mg/ml; rat liver microsomes
Experimental: Mutagenicity was measured by means of Ames' bacterial testing method. The tests were performed with strains of S. typhi TA 100, TA 102, and TA 97. The microsome activator method was used whereby rat liver was induced with methylcolanthrene.

[2] = test system: lymphocytes, macrophages and fibroblasts; conditions: 24-hour in vitro, 0.01 to 0.8 mmols/liter
Experimental: The cells used as subject matter included lymphocytes, macrophages and fibroblasts. Viability following a 24-hour in vitro exposure with 5-aminophthaloylhydrazide in concentrations of 0.01 to 0.8 mmols/liter was determined by means of protein incorporation and/or synthesis.

Compound: Nc1cccc2c(=O)[nH][nH]c(=O)c12 [5-aminophthaloylhydrazide, 5-amino-2,3-dihydrophthalazine-1,2 dione]
- clinical symptoms (generalized psoriasis; 20 mg/kg for 10 days): elimination of the itching and a lessening of the skin symptoms
- skin clearance (generalized psoriasis; after a 30-day treatment): the skin was completely clear
- number of neutrophils in the epidermal cells (generalized psoriasis; biopsy samples): considerable drop in the number of neutrophils in the epidermal cells
- remission period (generalized psoriasis; human, in vivo): 8 months
- skin symptoms after topical application (generalized psoriasis; solution of the drug in 15% DMSO): led quickly to the disappearance of the skin symptoms, including the pustules
- morphological alteration of liver, kidneys, heart and brain (mice, rats): No morphological alteration was observed
- percentage of lethal outcome (mice, rats; vs control group): did not exceed that of the control group
- extension of Hexenalum-induced sleep (Hexenalum-induced sleep): did not cause a noteworthy extension of the Hexenalum-induced sleep
- stability (anhydrous conditions): stable in anhydrous conditions (can be preserved for over one year)
- stability in aqueous solutions (aqueous solutions): sometimes unstable in aqueous solutions
- inhibitory or mutagenic activity [1]: does not posses inhibitory or mutagenic activity
- toxicity (viability by protein incorporation and/or synthesis) [2]: No toxicity was observed for any of the dosage levels tested
